We go through 16 molecules from PubChem BioAssay (NCI).

Among the test systems are A549 NSCLC; EKVX NSCLC; HCC-2998 colon; HL-60(TB) leukemia; OVCAR-5 ovarian; RPMI-8226 leukemia; SN12C renal; SNB-19 CNS; UO-31 renal; T-47D breast.
Holding throughout (test): DTP human tumour cell line panel, 48 h

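Method: 48-hour compound exposure of cells in 96-well plates, five concentrations, linear interpolation of endpoints. GI50 marks 50% less growth. TGI denotes the concentration required for complete inhibition of growth.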 Some results are limits rather than exact numbers.

For the molecule `CC(CC(C)(C)[N+](C)(C)C)[N+](C)(C)C` (stereo not drawn), the TGI with A549 NSCLC, with EKVX NSCLC, in the test with HCC-2998 colon, with HL-60(TB) leukemia, with OVCAR-5 ovarian and with RPMI-8226 leukemia was greater than 100 µM in each case. The total growth inhibition concentration (TGI) with SN12C renal, in the test on SNB-19 CNS and in the test on UO-31 renal was greater than 100 µM throughout.

In the case of `CCOC(=O)/C=C1/Nc2cc(F)c(F)cc2NC1=O`, the total growth inhibition concentration (TGI) with A549 NSCLC, in the test on EKVX NSCLC, in the test with HCC-2998 colon, with HL-60(TB) leukemia, in the test on OVCAR-5 ovarian and in the test with RPMI-8226 leukemia was greater than 100 µM each time. Also, the total growth inhibition concentration (TGI) with SN12C renal, in the test on SNB-19 CNS and in the test with UO-31 renal was greater than 100 µM in each case.

For `O=[N+]([O-])c1cc(Cl)ccc1S(=O)(=O)c1cc(Cl)cc2c1NCCC2`, the TGI with A549 NSCLC, in the test on EKVX NSCLC, with HCC-2998 colon, in the test with HL-60(TB) leukemia, in the test with OVCAR-5 ovarian and in the test on RPMI-8226 leukemia was greater than 100 µM throughout. For the same molecule, the total growth inhibition concentration (TGI) in the test on SN12C renal, in the test on SNB-19 CNS and with UO-31 renal was greater than 100 µM each time.

`CCCCNCC(O)c1cc(-c2ccc(C(F)(F)F)cc2)nc(-c2ccc(C(F)(F)F)cc2)c1` (stereo not drawn): the GI50 in the test with A549 NSCLC was 1.64 µM; in the test on SN12C renal, 1.9 µM; with UO-31 renal, 1.44 µM. Besides, the total growth inhibition concentration (TGI) with A549 NSCLC came to 3.36 µM; in the test on SN12C renal, 3.55 µM; in the test on UO-31 renal, 3.08 µM.

On to `C/C(=C/c1c(C)[nH]c(=O)[nH]c1=O)C(=O)O`, for which the concentration for total growth inhibition (TGI) with A549 NSCLC is greater than 1380 µM; with EKVX NSCLC, greater than 1380 µM; in the test with HCC-2998 colon, greater than 1380 µM; in the test on HL-60(TB) leukemia, greater than 1380 µM; in the test on OVCAR-5 ovarian, 1370 µM; in the test on RPMI-8226 leukemia, greater than 1380 µM. Moreover, the TGI in the test with SN12C renal was greater than 1380 µM; with SNB-19 CNS, greater than 1370 µM; in the test on UO-31 renal, greater than 1380 µM. Also, the GI50 with EKVX NSCLC was 1030 µM.

On to `CC(=O)C(C(=O)C(C)(C)C)C(=O)C(C)(C)C`, for which the TGI in the test on A549 NSCLC, with HCC-2998 colon, in the test on HL-60(TB) leukemia, in the test with OVCAR-5 ovarian, in the test on RPMI-8226 leukemia and in the test on SN12C renal was greater than 100 µM in each case. Moreover, the total growth inhibition concentration (TGI) in the test with SNB-19 CNS, with T-47D breast and in the test on UO-31 renal was greater than 100 µM each time.

As to `Cc1ccc(C2(c3ccc(C)c(O)c3C)CCN(C)CC2)c(C)c1O`, the TGI with A549 NSCLC, in the test on EKVX NSCLC, in the test on OVCAR-5 ovarian, in the test on RPMI-8226 leukemia, in the test with SN12C renal and in the test with SNB-19 CNS was greater than 100 µM in each case. Further, the TGI with T-47D breast and with UO-31 renal was greater than 100 µM in each case.

Regarding `CC(C)(Oc1ccc(C(=O)c2ccc(Cl)cc2)cc1Cl)C(=O)N1CCN(c2ccccc2)CC1`, the TGI in the test with A549 NSCLC, in the test on EKVX NSCLC, in the test with HL-60(TB) leukemia, with OVCAR-5 ovarian, with RPMI-8226 leukemia and in the test on SNB-19 CNS was greater than 100 µM in each case. Further, in the test on UO-31 renal, the concentration for total growth inhibition (TGI) was greater than 100 µM.

For the molecule `COc1cc(-c2coc3c(OC)c(OC4OC(COC5OC(C)C(O)C(O)C5O)C(O)C(O)C4O)c(OC)c(O)c3c2=O)cc(C)c1O` (stereo not drawn), the TGI is greater than 100 µM in the test on A549 NSCLC; 38 µM in the test with EKVX NSCLC; 39.2 µM with HCC-2998 colon; 45.5 µM in the test on OVCAR-5 ovarian; 30.3 µM in the test with SNB-19 CNS; 61.4 µM in the test on T-47D breast. The molecule also returned a TGI in the test on UO-31 renal of 50.5 µM.

As for `COc1ccc(N2C(=O)C3c4[nH]c5ccccc5c4C4CCC(C(C)(C)C)CC4C3C2=O)cc1OC` (stereo not drawn), the total growth inhibition concentration (TGI) in the test with A549 NSCLC was 32.6 µM; in the test with EKVX NSCLC, greater than 100 µM; in the test with HCC-2998 colon it was greater than 100 µM; with HL-60(TB) leukemia, greater than 100 µM; with RPMI-8226 leukemia it was 61.5 µM; in the test with SN12C renal, 48.5 µM. Also, the concentration for total growth inhibition (TGI) with SNB-19 CNS is 71.3 µM; in the test with UO-31 renal, greater than 100 µM.

Consider `COc1c(Cl)c(Cl)c(OC)c2c1C(=O)C=CC2=O`, for which the concentration for total growth inhibition (TGI) in the test on A549 NSCLC was greater than 100 µM; in the test on EKVX NSCLC it was 31.8 µM; with HCC-2998 colon it was greater than 100 µM; in the test on HL-60(TB) leukemia it was 5.09 µM; in the test with OVCAR-5 ovarian, greater than 100 µM; with RPMI-8226 leukemia, 73.1 µM. Besides, the values for the TGI in the test with SN12C renal, in the test on SNB-19 CNS and in the test on UO-31 renal were 62.2 µM, greater than 100 µM and 31.7 µM, respectively.

Turning to `Oc1ccccc1C=Nc1ccccc1N=Cc1ccccc1O`, the TGI in the test on A549 NSCLC was greater than 100 µM; with EKVX NSCLC, greater than 100 µM; in the test with HCC-2998 colon, greater than 100 µM; in the test on HL-60(TB) leukemia it was 81.5 µM; with RPMI-8226 leukemia, greater than 100 µM; with SN12C renal, greater than 100 µM. In the test with SNB-19 CNS, this molecule had a TGI greater than 100 µM.

In the case of `CCc1cc2c(oc3c4ccccc4ccc23)c(=O)[nH]1`, the TGI in the test on A549 NSCLC, in the test with EKVX NSCLC, in the test on HL-60(TB) leukemia, in the test on OVCAR-5 ovarian, in the test on SNB-19 CNS and in the test on UO-31 renal was greater than 10 µM each time.

As for `O=c1c(S(=O)(=O)Oc2ccccc2)coc2cc(F)ccc12`, the TGI with A549 NSCLC, with EKVX NSCLC, in the test on HCC-2998 colon, with OVCAR-5 ovarian, with SN12C renal and with SNB-19 CNS was greater than 100 µM each time. Further, the total growth inhibition concentration (TGI) in the test with T-47D breast and in the test with UO-31 renal was greater than 100 µM each time.

`CCOC(=O)CN(Cc1ccccc1)Cc1c(C(=O)c2ccccc2)c2ccccc2n1C(=O)c1ccccc1`: the concentration for total growth inhibition (TGI) in the test with A549 NSCLC, with EKVX NSCLC, in the test with HCC-2998 colon, in the test with OVCAR-5 ovarian, in the test with RPMI-8226 leukemia and in the test with SN12C renal was greater than 100 µM throughout. The total growth inhibition concentration (TGI) with SNB-19 CNS and in the test on UO-31 renal was greater than 100 µM throughout.

As to `COc1cc(C(CC(OC)OC)=C(C#N)C#N)cc(OC)c1OC`, the TGI in the test on A549 NSCLC is greater than 100 µM; in the test on EKVX NSCLC, greater than 100 µM; in the test with HCC-2998 colon it was 40.4 µM; in the test on HL-60(TB) leukemia it was 67.8 µM; with OVCAR-5 ovarian, greater than 100 µM; with SN12C renal, greater than 100 µM. The TGI with SNB-19 CNS and with UO-31 renal was greater than 100 µM each time.

In general, TGI refers to the concentration at which net growth stops. High values mean less potent growth arrest, low ones more potent growth arrest. The GI50 is the concentration giving 50% growth inhibition.
